Measurements taken from ChEMBL document CHEMBL4616629, “Diosmin Treats Lipopolysaccharide-Induced Inflammatory Pain and Peritonitis by Blocking NF-κB Activation in Mice” (J Nat Prod, 2020).
Active and inactive are the calls of the source.

Experiments:
[1] = tested on: Mus musculus; test: Analgesic activity in LPS-induced Swiss mouse assessed as decrease in neutrophil recruitment in hind paw skin by measuring MPO activity at 10 to 100 mg/kg, po pretreated for 1 hr followed by LPS-stimulation and measured after 5 hrs by colorimetric assay; type: functional, organism-based
[2] = tested on: Mus musculus; test: (§1) Antiinflammatory activity against Swiss mouse model of LPS-induced peritonitis assessed as decrease in leukocyte recruitment in peritoneal cavity by measuring reduction in total leukocytes at 30 to 100 mg/kg, po pretreated for 1 hr followed by LPS-stimulation and measured after 3 hrs by light microscopic based Neubauer chamber cell counting method; type: functional, organism-based
[3] = tested on: Mus musculus; test: Analgesic activity in LPS-induced Swiss mouse assessed as increase in right/left paw ratio at 30 mg/kg, po pretreated for 1 hr followed by LPS-stimulation and measured after 1 to 5 hrs by static weight bearing assay; type: functional, organism-based
[4] = tested on: Mus musculus; test: Antioxidant activity in Swiss mouse model of LPS-induced inflammatory pain assessed as increase in GSH level in hind paw skin at mg/kg, po pretreated for 1 hr followed by LPS-stimulation and measured after 3 hrs by colorimetric based assay; type: functional, organism-based
[5] = tested on: Mus musculus; test: (§2) Inhibition of NFkappaB in Swiss mouse peritoneal exudates model of LPS-induced inflammatory pain at 30 mg/kg, po pretreated for 1 hr followed by LPS-stimulation and measured after 3 hrs by Alexa Fluor 647 staining based immunofluorescence assay; type: organism-based
[6] = tested on: Mus musculus; test: Antiinflammatory activity against Swiss mouse model of LPS-induced peritonitis assessed as decrease in NBT-positive leukocytes in peritoneal exudate at 30 mg/kg, po pretreated for 1 hr followed by LPS-stimulation and measured after 3 hrs by light microscopic based cell counting method; type: functional, organism-based
[7] = tested on: Mus musculus; test: as §1, with “mononuclear cells” for “total leukocytes”; type: functional, organism-based
[8] = tested on: Mus musculus; test: Antiinflammatory activity against Swiss mouse model of LPS-induced inflammatory pain assessed as decrease in TNFalpha level in hind paw skin at 30 mg/kg, po pretreated for 1 hr followed by LPS-stimulation and measured after 3 hrs by ELISA; type: functional, organism-based
[9] = tested on: Mus musculus; test: Analgesic activity in LPS-induced C57BL/6 mouse harboring LysM-eGFP assessed as decrease in neutrophil recruitment in hind paw skin by measuring fluorescence at 30 mg/kg, po pretreated for 1 hr followed by LPS-stimulation and measured after 5 hrs by confocal microscopic method; type: functional, organism-based
[10] = tested on: Mus musculus; test: Antioxidant activity in Swiss mouse model of LPS-induced inflammatory pain assessed as reduction in lipid peroxidation in hind paw skin at mg/kg, po pretreated for 1 hr followed by LPS-stimulation and measured after 3 hrs by colorimetric based TBARS assay; type: functional, organism-based
[11] = tested on: Mus musculus; test: Antiinflammatory activity against Swiss mouse model of LPS-induced inflammatory pain assessed as decrease in IL1beta level in peritoneal cavity at 30 mg/kg, po pretreated for 1 hr followed by LPS-stimulation and measured after 3 hrs by ELISA; type: functional, organism-based
[12] = tested on: Mus musculus; test: as §1, with “polymorphonuclear” for “total leukocytes”; type: functional, organism-based
[13] = tested on: Mus musculus; test: Antiinflammatory activity against Swiss mouse model of LPS-induced peritonitis assessed as decrease in superoxide anion production in peritoneal wash at 30 mg/kg, po pretreated for 1 hr followed by LPS-stimulation and measured after 3 hrs by NBT based spectrophotometric assay; type: functional, organism-based
[14] = biological target: Transcription factor p65 (Mus musculus) (UniProt Q04207); test: Inhibition of NFkappaB in Swiss mouse peritoneal exudates model of LPS-induced inflammatory pain assessed as ratio of phosphorylated NFkappaB p65 at (Ser536 residue) to total NFkappaB p65 at 30 mg/kg, po pretreated for 1 hr followed by LPS-stimulation and measured after 3 hrs by ELISA; type: organism-based
Sequence of Transcription factor p65 (Mus musculus) (Q04207 whole entry): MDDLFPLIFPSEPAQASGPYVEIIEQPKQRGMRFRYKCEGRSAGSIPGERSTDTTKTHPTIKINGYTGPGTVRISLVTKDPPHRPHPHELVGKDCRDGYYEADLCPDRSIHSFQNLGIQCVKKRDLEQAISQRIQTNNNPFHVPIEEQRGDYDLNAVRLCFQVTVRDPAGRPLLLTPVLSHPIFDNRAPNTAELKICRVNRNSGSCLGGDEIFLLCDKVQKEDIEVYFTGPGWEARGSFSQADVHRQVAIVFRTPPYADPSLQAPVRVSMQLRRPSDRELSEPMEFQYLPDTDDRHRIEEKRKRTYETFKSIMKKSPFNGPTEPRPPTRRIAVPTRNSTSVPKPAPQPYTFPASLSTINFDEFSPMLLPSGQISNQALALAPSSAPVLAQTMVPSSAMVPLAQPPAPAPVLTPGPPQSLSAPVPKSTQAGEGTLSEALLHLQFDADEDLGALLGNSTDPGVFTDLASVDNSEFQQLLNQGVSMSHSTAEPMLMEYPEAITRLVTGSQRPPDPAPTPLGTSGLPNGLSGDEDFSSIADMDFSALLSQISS

[15] = biological target: Transcription factor p65 (Mus musculus) (UniProt Q04207); test: as §2, with “pain assessed as reduction area of colocalization between phosphorylated NFkappaB p65 and DAPI” for “pain”; type: organism-based
[16] = tested on: Mus musculus; test: Antioxidant activity in Swiss mouse model of LPS-induced inflammatory pain assessed as ABTS radical scavenging activity in hind paw skin at mg/kg, po pretreated for 1 hr followed by LPS-stimulation and measured after 3 hrs by colorimetric based assay; type: functional, organism-based
[17] = tested on: Mus musculus; test: Antiinflammatory activity against Swiss mouse model of LPS-induced peritonitis assessed as decrease in total ROS level at 30 mg/kg, po pretreated for 1 hr followed by LPS-stimulation and measured after 3 hrs by H2DCF-DA staining based confocal microscopic method; type: functional, organism-based
[18] = tested on: Mus musculus; test: Antioxidant activity in Swiss mouse model of LPS-induced inflammatory pain assessed as total ferric ion reducing activity in hind paw skin at mg/kg, po pretreated for 1 hr followed by LPS-stimulation and measured after 3 hrs by colorimetric based FRAP assay; type: functional, organism-based
[19] = tested on: Mus musculus; test: Analgesic activity in Swiss mouse model of LPS-induced inflammatory pain assessed as reduction in thermal hyperalgesia at 30 to 100 mg/kg, po pretreated for 1 hr followed by LPS-stimulation and measured after 1 to 5 hrs by hot plate technique; type: functional, organism-based
[20] = tested on: Mus musculus; test: Antiinflammatory activity against Swiss mouse model of LPS-induced inflammatory pain assessed as decrease in IL1beta level in hind paw skin at 30 mg/kg, po pretreated for 1 hr followed by LPS-stimulation and measured after 3 hrs by ELISA; type: functional, organism-based
[21] = tested on: Mus musculus; test: Antiinflammatory activity against Swiss mouse model of LPS-induced inflammatory pain assessed as decrease in IL6 level in hind paw skin at 30 mg/kg, po pretreated for 1 hr followed by LPS-stimulation and measured after 3 hrs by ELISA; type: functional, organism-based
[22] = tested on: Mus musculus; test: Antiinflammatory activity against Swiss mouse model of LPS-induced inflammatory pain assessed as decrease in TNFalpha level in peritoneal cavity at 30 mg/kg, po pretreated for 1 hr followed by LPS-stimulation and measured after 3 hrs by ELISA; type: functional, organism-based
[23] = tested on: Mus musculus; test: Analgesic activity in Swiss mouse model of LPS-induced inflammatory pain assessed as reduction in mechanical hyperalgesia at 30 to 100 mg/kg, po pretreated for 1 hr followed by LPS-stimulation and measured after 1 to 5 hrs by Von Frey test; type: functional, organism-based
[24] = tested on: Mus musculus; test: Antiinflammatory activity against Swiss mouse model of LPS-induced inflammatory pain assessed as decrease in IL6 level in peritoneal cavity at 30 mg/kg, po pretreated for 1 hr followed by LPS-stimulation and measured after 3 hrs by ELISA; type: functional, organism-based
[25] = tested on: Mus musculus; test: Antioxidant activity in Swiss mouse model of LPS-induced inflammatory pain assessed as decrease in superoxide production in hind paw skin at mg/kg, po pretreated for 1 hr followed by LPS-stimulation and measured after 3 hrs by colorimetric based NBT assay; type: functional, organism-based

COc1ccc(-c2cc(=O)c3c(O)cc(O[C@@H]4O[C@H](CO[C@@H]5O[C@@H](C)[C@H](O)[C@@H](O)[C@H]5O)[C@@H](O)[C@H](O)[C@H]4O)cc3o2)cc1O
active: Activity [1] | Activity [2] | Activity [3] | Activity [4] | inhibition [5] | Activity [6] | Activity [7] | Activity [8] | Activity [9] | Activity [10] | Activity [11] | Activity [12] | Activity [13] | inhibition [14] | inhibition [15] | Activity [16] | Activity [17] | Activity [18] | Activity [19] | Activity [20] | Activity [21] | Activity [22] | Activity [23] | Activity [24] | Activity [25]
